From patent US7973061B2, “Anaplastic lymphoma kinase modulators and methods of use” (Exelixis, Inc., priority 2004, dated 2011) come the findings set out here.

Structures are written as SMILES.

T1 sequence (Q9UM73 1098-1410): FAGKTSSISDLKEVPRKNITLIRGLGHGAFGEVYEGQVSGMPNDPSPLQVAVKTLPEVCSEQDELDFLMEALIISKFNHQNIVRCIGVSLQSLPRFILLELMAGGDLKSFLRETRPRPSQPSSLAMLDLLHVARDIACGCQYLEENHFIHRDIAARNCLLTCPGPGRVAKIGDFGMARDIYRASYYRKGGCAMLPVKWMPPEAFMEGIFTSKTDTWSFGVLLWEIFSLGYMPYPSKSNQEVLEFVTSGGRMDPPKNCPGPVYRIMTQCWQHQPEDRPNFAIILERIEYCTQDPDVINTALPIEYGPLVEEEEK

One assay has as its target T1, ALK (baculovirus expressed human ALK kinase domain F1098-K1410) (Homo sapiens, UniProt Q9UM73).
T1 construct: human ALK kinase domain F1098-K1410; made in house
The assay is described as follows: biochemical.
Conditions: not given
An outline of the steps:
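Inhibitors were tested at 10 concentrations, and IC50 was derived from a sigmoidal fit (Min, Max, Hill slope). Kinase activity was measured as percent ATP left after a 2 h reaction at room temperature, detected by luciferase-luciferin chemiluminescence. The ATP level was set close to KM for the ALK kinase domain F1098-K1410.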
`O=C(COc1ccc(OC(F)(F)F)cc1)NCc1nc(C(=O)NCCOc2ccccc2)cs1` [Entry 122, N-[2-(phenyloxy)ethyl]-2-({[({4-[(trifluoromethyl)oxy]phenyl}oxy)acetyl]amino}methyl)-1,3-thiazole-4-carboxamide]: the IC50 lay within 50 to 500 nM.

Still in this assay, the particulars now being: 1 μM ATP, 4 μM poly-AEKY, 12 nM ALK, 2 hours at ambient temperature; read-out: ALK IC50.
On to `CC(NC(=O)c1coc(CNC(=O)COc2ccc(OC(F)(F)F)cc2)n1)c1cccc2ccccc12` (stereo not shown) [Entry 99, N-(1-naphthalen-1-ylethyl)-2-({[({4-[(trifluoromethyl)oxy]phenyl}oxy)acetyl]amino}methyl)-1,3-oxazole-4-carboxamide], for which the IC50 lay in the range of 50 to 500 nM.

In the case of `O=C(NCCc1cccc(Cl)c1)c1csc(CNC(=O)c2cccnc2Oc2ccc(F)cc2)n1` [Entry 141, N-{[4-({[2-(3-chlorophenyl)ethyl]amino}carbonyl)-1,3-thiazol-2-yl]methyl}-2-[(4-fluorophenyl)oxy]pyridine-3-carboxamide], the IC50 lay within 50 to 500 nM.

For `COc1cccc(CCNC(=O)c2csc(CNC(=O)COc3ccc(OC(F)(F)F)cc3)n2)c1` [Entry 40, N-{2-[3-(methyloxy)phenyl]ethyl}-2-({[({4-[(trifluoromethyl)oxy]phenyl}oxy)acetyl]amino}methyl)-1,3-thiazole-4-carboxamide], the IC50 lay within 50 to 500 nM.

For the compound `O=C(COc1ccc(OC(F)(F)F)cc1)NCc1nc(C(=O)N2CCN(c3ccccn3)CC2)cs1` [Entry 279, N-({4-[(4-pyridin-2-ylpiperazin-1-yl)carbonyl]-1,3-thiazol-2-yl}methyl)-2-({4-[(trifluoromethyl)oxy]phenyl}oxy)acetamide], the IC50 lay within 500 to 2000 nM.

Turning to `O=C(NCCc1cccc(Cl)c1)c1csc(CNCc2ccc(OC(F)(F)F)cc2)n1` [Entry 309, N-[2-(3-chlorophenyl)ethyl]-2-{[({4-[(trifluoromethyl)oxy]phenyl}methyl)amino]methyl}-1,3-thiazole-4-carboxamide], the IC50 is above 2000 nM.

Turning to `COc1cccc(CNC(=O)c2coc(CNC(=O)COc3ccc(OC(F)(F)F)cc3)n2)c1OC` [Entry 223, N-{[2,3-bis(methyloxy)phenyl]methyl}-2-({[({4-[(trifluoromethyl)oxy]phenyl}oxy)acetyl]amino}methyl)-1,3-oxazole-4-carboxamide], the IC50 was 500 to 2000 nM.

`CCc1ccc(NC(=O)NCc2nc(C(=O)NCCc3ccccc3F)cs2)cc1` [Entry 101, 2-[({[(4-ethylphenyl)amino]carbonyl}amino)methyl]-N-[2-(2-fluorophenyl)ethyl]-1,3-thiazole-4-carboxamide]: the IC50 was in the range of 50 to 500 nM.

Turning to `CC(C)c1ccc(NC(=O)NCc2nc(C(=O)NCCc3cccc(Cl)c3)cs2)cc1` [Entry 25, N-[2-(3-chlorophenyl)ethyl]-2-{[({[4-(1-methylethyl)phenyl]amino}carbonyl)amino]methyl}-1,3-thiazole-4-carboxamide], the IC50 was below 50 nM.

Consider `COc1ccc(CNC(=O)c2csc(CNC(=O)COc3ccc(OC(F)(F)F)cc3)n2)cc1` [Entry 178, N-{[4-(methyloxy)phenyl]methyl}-2-({[({4-[(trifluoromethyl)oxy]phenyl}oxy)acetyl]amino}methyl)-1,3-thiazole-4-carboxamide], for which the half-maximal inhibitory concentration (IC50) lay in the range of 50 to 500 nM.

Consider `CCOc1ccc(CCNC(=O)c2csc(CNC(=O)COc3ccc(OC(F)(F)F)cc3)n2)cc1OC` [Entry 43, N-{2-[4-(ethyloxy)-3-(methyloxy)phenyl]ethyl}-2-({[({4-[(trifluoromethyl)oxy]phenyl}oxy)acetyl]amino}methyl)-1,3-thiazole-4-carboxamide], for which the IC50 was 50 to 500 nM.

As for `O=C(Cc1ccc2ccccc2c1)NCc1nc(C(=O)NCCc2cccc(Cl)c2)cs1` [Entry 117, N-[2-(3-chlorophenyl)ethyl]-2-{[(naphthalen-2-ylacetyl)amino]methyl}-1,3-thiazole-4-carboxamide], the IC50 is 50 to 500 nM.

For the compound `Cc1cc(Cl)cc(Cl)c1CNC(=O)c1csc(CNC(=O)COc2ccc(OC(F)(F)F)cc2)n1` [Entry 166, N-[(2,4-dichloro-6-methylphenyl)methyl]-2-({[({4-[(trifluoromethyl)oxy]phenyl}oxy)acetyl]amino}methyl)-1,3-thiazole-4-carboxamide], the IC50 was 50 to 500 nM.

Turning to `O=C(Cc1ccc2ccccc2c1)NCc1nc(C(=O)NCCc2ccccc2F)cs1` [Entry 169, N-[2-(2-fluorophenyl)ethyl]-2-{[(naphthalen-2-ylacetyl)amino]methyl}-1,3-thiazole-4-carboxamide], the IC50 was in the range of 50 to 500 nM.

Consider `COc1ccc(OCCNC(=O)c2csc(CNC(=O)COc3ccc(OC(F)(F)F)cc3)n2)cc1` [Entry 81, N-(2-{[4-(methyloxy)phenyl]oxy}ethyl)-2-({[({4-[(trifluoromethyl)oxy]phenyl}oxy)acetyl]amino}methyl)-1,3-thiazole-4-carboxamide], for which the 50% inhibitory concentration (IC50) fell in the range of 50 to 500 nM.

Take `CSCCNC(=O)c1csc(CNC(=O)COc2ccc(OC(F)(F)F)cc2)n1` [Entry 195, N-[2-(methylthio)ethyl]-2-({[({4-[(trifluoromethyl)oxy]phenyl}oxy)acetyl]amino}methyl)-1,3-thiazole-4-carboxamide]: the IC50 was 50 to 500 nM.

As for `O=C(COc1ccc(OC(F)(F)F)cc1)NCc1nc(C(=O)NCc2ccc(F)c(Cl)c2)cs1` [Entry 191, N-[(3-chloro-4-fluorophenyl)methyl]-2-({[({4-[(trifluoromethyl)oxy]phenyl}oxy)acetyl]amino}methyl)-1,3-thiazole-4-carboxamide], the IC50 lay in the range of 50 to 500 nM.

Regarding `COc1cccc(CNC(=O)c2csc(CN)n2)c1OC` [Entry 303, 2-(aminomethyl)-N-{[2,3-bis(methyloxy)phenyl]methyl}-1,3-thiazole-4-carboxamide], the IC50 is above 2000 nM.

For the compound `O=C(COc1ccc(OC(F)(F)F)cc1)NCc1nc(C(=O)NCCc2ccccc2Cl)cs1` [Entry 104, N-[2-(2-chlorophenyl)ethyl]-2-({[({4-[(trifluoromethyl)oxy]phenyl}oxy)acetyl]amino}methyl)-1,3-thiazole-4-carboxamide], the IC50 lay within 50 to 500 nM.

`O=C(COc1ccc(OC(F)(F)F)cc1)NCc1nc(C(=O)NCc2ccc(F)cc2F)cs1` [Entry 258, N-[(2,4-difluorophenyl)methyl]-2-({[({4-[(trifluoromethyl)oxy]phenyl}oxy)acetyl]amino}methyl)-1,3-thiazole-4-carboxamide]: the IC50 was in the range of 500 to 2000 nM.

For the compound `O=C(COc1ccc(OC(F)(F)F)cc1)NCc1nc(C(=O)NCC2CC2)cs1` [Entry 216, N-(cyclopropylmethyl)-2-({[({4-[(trifluoromethyl)oxy]phenyl}oxy)acetyl]amino}methyl)-1,3-thiazole-4-carboxamide], the IC50 is 50 to 500 nM.

Take `O=C(NCCc1ccccc1F)c1csc(CNC(=O)c2cccnc2Oc2ccc(Cl)cc2)n1` [Entry 129, 2-[(4-chlorophenyl)oxy]-N-{[4-({[2-(2-fluorophenyl)ethyl]amino}carbonyl)-1,3-thiazol-2-yl]methyl}pyridine-3-carboxamide]: the IC50 fell in the range of 50 to 500 nM.

With `O=C(COc1ccc(I)cc1)NCc1nc(C(=O)NCCc2ccccc2F)cs1` [Entry 59, N-[2-(2-fluorophenyl)ethyl]-2-[({[(4-iodophenyl)oxy]acetyl}amino)methyl]-1,3-thiazole-4-carboxamide], the IC50 was in the range of 50 to 500 nM.

As for `COc1ccccc1CNC(=O)c1csc(CNC(=O)c2cccnc2Oc2ccc(Cl)cc2)n1` [Entry 198, 2-[(4-chlorophenyl)oxy]-N-({4-[({[2-(methyloxy)phenyl]methyl}amino)carbonyl]-1,3-thiazol-2-yl}methyl)pyridine-3-carboxamide], the IC50 lay within 50 to 500 nM.

On to `O=C(COc1ccc(OC(F)(F)F)cc1)NCc1nc(C(=O)NCCc2ccc(Br)cc2)co1` [Entry 231, N-[2-(4-bromophenyl)ethyl]-2-({[({4-[(trifluoromethyl)oxy]phenyl}oxy)acetyl]amino}methyl)-1,3-oxazole-4-carboxamide], for which the IC50 lay in the range of 500 to 2000 nM.

Turning to `CCCCOCCCNC(=O)c1csc(CNC(=O)COc2ccc(OC(F)(F)F)cc2)n1` [Entry 37, N-[3-(butyloxy)propyl]-2-({[({4-[(trifluoromethyl)oxy]phenyl}oxy)acetyl]amino}methyl)-1,3-thiazole-4-carboxamide], the IC50 fell in the range of 50 to 500 nM.

As for `O=C(COc1ccc(OC(F)(F)F)cc1)NCc1nc(C(=O)N[C@@H]2CCCc3ccccc32)cs1` [Entry 165, N-[(1R)-1,2,3,4-tetrahydronaphthalen-1-yl]-2-({[({4-[(trifluoromethyl)oxy]phenyl}oxy)acetyl]amino}methyl)-1,3-thiazole-4-carboxamide], the IC50 was in the range of 50 to 500 nM.

As to `CC1CCCCC1NC(=O)c1coc(CNC(=O)COc2ccc(OC(F)(F)F)cc2)n1` (stereo not shown) [Entry 257, N-(2-methylcyclohexyl)-2-({[({4-[(trifluoromethyl)oxy]phenyl}oxy)acetyl]amino}methyl)-1,3-oxazole-4-carboxamide], the IC50 lay within 500 to 2000 nM.

`O=C(COc1ccc(OC(F)(F)F)cc1)NCc1nc(C(=O)N[C@H]2CCC[C@@H]2OCc2ccccc2)cs1` [Entry 103, N-{(1S,2S)-2-[(phenylmethyl)oxy]cyclopentyl}-2-({[({4-[(trifluoromethyl)oxy]phenyl}oxy)acetyl]amino}methyl)-1,3-thiazole-4-carboxamide]: the IC50 was 50 to 500 nM.

For `COc1ccc(OC)c(CCNC(=O)c2csc(CNC(=O)COc3ccc(OC(F)(F)F)cc3)n2)c1` [Entry 137, N-{2-[2,5-bis(methyloxy)phenyl]ethyl}-2-({[({4-[(trifluoromethyl)oxy]phenyl}oxy)acetyl]amino}methyl)-1,3-thiazole-4-carboxamide], the IC50 is 50 to 500 nM.

Turning to `NCc1nc(C(=O)NCCc2cccc(Cl)c2)cs1` [Entry 300, 2-(aminomethyl)-N-[2-(3-chlorophenyl)ethyl]-1,3-thiazole-4-carboxamide], the IC50 is above 2000 nM.
